Source: patent US20230374015A1, “INHIBITORS OF FIBROBLAST GROWTH FACTOR RECEPTOR KINASES” (Kinnate Biopharma Inc., priority 2020, published 2023)

molecular target: FGFR2 (Homo sapiens, UniProt P21802); experiment: FGFR2 Kinase Protocol - Condition 2 (Reaction Biology HotSpot radiometric kinase assay, no preincubation); type: biochemical; details: poly[Glu:Tyr] (4:1) 0.2 mg/ml, ATP 100 microM, 2 hr room temperature
Summary of the method: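 Ten-point, 3-fold compound dilutions were tested against wildtype or V564F FGFR2 with 100 µM ATP (33P-labelled), no preincubation, and 0.2 mg/ml poly[Glu:Tyr] (4:1) substrate. After 2 hr at room temperature, incorporation was read on P81 filter paper; IC50 fitted from activity remaining relative to vehicle.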

Sequence of FGFR2 (P21802 22-821): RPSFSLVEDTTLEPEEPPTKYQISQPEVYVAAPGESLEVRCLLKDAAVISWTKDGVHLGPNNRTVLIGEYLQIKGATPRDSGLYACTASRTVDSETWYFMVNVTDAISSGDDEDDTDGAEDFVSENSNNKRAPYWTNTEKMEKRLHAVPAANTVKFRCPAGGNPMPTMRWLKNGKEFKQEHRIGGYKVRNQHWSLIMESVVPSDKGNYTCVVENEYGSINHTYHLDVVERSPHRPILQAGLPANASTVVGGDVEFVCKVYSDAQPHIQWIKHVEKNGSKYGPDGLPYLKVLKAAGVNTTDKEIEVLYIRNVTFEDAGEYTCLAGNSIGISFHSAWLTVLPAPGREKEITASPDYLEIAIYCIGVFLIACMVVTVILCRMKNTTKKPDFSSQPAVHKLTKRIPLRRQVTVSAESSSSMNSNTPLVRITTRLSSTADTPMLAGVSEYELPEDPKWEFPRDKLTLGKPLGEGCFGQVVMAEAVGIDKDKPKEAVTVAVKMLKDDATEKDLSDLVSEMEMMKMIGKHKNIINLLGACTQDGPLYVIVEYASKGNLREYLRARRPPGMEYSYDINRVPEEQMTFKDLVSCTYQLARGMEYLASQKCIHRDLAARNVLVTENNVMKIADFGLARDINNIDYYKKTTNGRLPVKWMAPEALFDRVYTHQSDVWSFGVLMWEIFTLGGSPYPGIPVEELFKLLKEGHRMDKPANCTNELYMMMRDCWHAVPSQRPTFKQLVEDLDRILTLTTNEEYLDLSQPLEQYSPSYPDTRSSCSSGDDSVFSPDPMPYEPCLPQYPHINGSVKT

IC50, ≤ 100 nM:
C=CC(=O)N1CC[C@H](n2nc(C#Cc3cc4ncn(C)c4cc3Cl)c3c(N)nccc32)C1 [Example 137, (S)-1-(3-(4-Amino-3-((6-chloro-1-methyl-1H-benzo[d]imidazol-5-yl)ethynyl)-1H-pyrazolo[4,3-c]pyridin-1-yl)pyrrolidin-1-yl)prop-2-en-1-one]
C=CC(=O)N1C[C@@H](n2nc(C#Cc3cc4ncn(C5CC5)c4cc3Cl)c3c(N)nccc32)C[C@@H]1COC [Example 138, 1-[(2R,4S)-4-{4-Amino-3-[2-(6-chloro-1-cyclopropyl-1,3-benzodiazol-5-yl)ethynyl]pyrazolo[4,3-c]pyridin-1-yl}-2-(methoxymethyl)pyrrolidin-1-yl]prop-2-en-1-one]
C=CC(=O)N1C[C@@H](n2nc(C#Cc3c(F)cc4c(ncn4C)c3F)c3c(N)ncnc32)C[C@@H]1COC(F)F [Example 139, 1-[(2R,4S)-4-{4-Amino-3-[2-(4,6-difluoro-1-methyl-1,3-benzodiazol-5-yl)ethynyl]pyrazolo[3,4-d]pyrimidin-1-yl}-2-[(difluoromethoxy)methyl]pyrrolidin-1-yl]prop-2-en-1-one]
C=CC(=O)N1CC[C@H](n2nc(C#Cc3cc4ncn(C)c4cc3F)c3c(N)ncnc32)C1 [Example 140, 1-[(3S)-3-{4-Amino-3-[2-(6-fluoro-1-methyl-1,3-benzodiazol-5-yl)ethynyl]pyrazolo[3,4-d]pyrimidin-1-yl}pyrrolidin-1-yl]prop-2-en-1-one]
C=CC(=O)N1CC[C@H](n2nc(C#Cc3cc4ncn(C)c4cc3F)c3c(N)nccc32)C1 [Example 141, 1-[(3S)-3-{4-Amino-3-[2-(6-fluoro-1-methyl-1,3-benzodiazol-5-yl)ethynyl]pyrazolo[4,3-c]pyridin-1-yl}pyrrolidin-1-yl]prop-2-en-1-one]
C=CC(=O)N1CC[C@H](n2cc(C#Cc3cc4ncn(C)c4cc3F)c3c(N)ncnc32)C1 [Example 142, (S)-1-(3-(4-Amino-5-((6-fluoro-1-methyl-1H-benzo[d]imidazol-5-yl)ethynyl)-7H-pyrrolo[2,3-d]pyrimidin-7-yl)pyrrolidin-1-yl)prop-2-en-1-one]
C=CC(=O)N1CC[C@H](n2cc(C#Cc3cc4ncn(CC)c4cc3Cl)c3c(N)ncnc32)C1 [Example 143, (S)-1-(3-(4-Amino-5-((6-chloro-1-ethyl-1H-benzo[d]imidazol-5-yl)ethynyl)-7H-pyrrolo[2,3-d]pyrimidin-7-yl)pyrrolidin-1-yl)prop-2-en-1-one]
C=CC(=O)N1CC[C@H](n2nc(C#Cc3cc4ncn(CC)c4c(F)c3Cl)c3c(N)ncnc32)C1 [Example 144, 1-[(3S)-3-{4-Amino-3-[2-(6-chloro-1-ethyl-7-fluoro-1,3-benzodiazol-5-yl)ethynyl]pyrazolo[3,4-d]pyrimidin-1-yl}pyrrolidin-1-yl]prop-2-en-1-one]
C=CC(=O)N1CC[C@H](n2nc(C#Cc3cc4ncn(C)c4c(F)c3Cl)c3c(N)ncnc32)C1 [Example 145, (S)-1-(3-(4-Amino-3-((6-chloro-7-fluoro-1-methyl-1H-benzo[d]imidazol-5-yl)ethynyl)-1H-pyrazolo[3,4-d]pyrimidin-1-yl)pyrrolidin-1-yl)prop-2-en-1-one]
C=CC(=O)N1CC[C@H](n2nc(C#Cc3cc4ncn(C5CC5)c4cc3F)c3c(N)ncnc32)C1 [Example 146, (S)-1-(3-(4-Amino-3-((1-cyclopropyl-6-fluoro-1H-benzo[d]imidazol-5-yl)ethynyl)-1H-pyrazolo[3,4-d]pyrimidin-1-yl)pyrrolidin-1-yl)prop-2-en-1-one]
C=CC(=O)N1CC[C@H](n2nc(C#Cc3cc4ncn(C)c4cc3Cl)c3c(N)ncnc32)C1 [Example 147, 1-[(3S)-3-{4-Amino-3-[2-(6-chloro-1-methyl-1,3-benzodiazol-5-yl)ethynyl]pyrazolo[3,4-d]pyrimidin-1-yl}pyrrolidin-1-yl]prop-2-en-1-one]
C=CC(=O)N1CC[C@H](n2nc(C#Cc3cc4ncn(C)c4c(F)c3Cl)c3c(N)nccc32)C1 [Example 148, 1-[(3S)-3-{4-Amino-3-[2-(6-chloro-7-fluoro-1-methyl-1,3-benzodiazol-5-yl)ethynyl]pyrazolo[4,3-c]pyridin-1-yl}pyrrolidin-1-yl]prop-2-en-1-one]
C=CC(=O)N1CC[C@H](n2nc(C#Cc3cc4ncn(C5CC5)c4cc3F)c3c(N)nccc32)C1 [Example 149, 1-[(3S)-3-{4-Amino-3-[2-(1-cyclopropyl-6-fluoro-1,3-benzodiazol-5-yl)ethynyl]pyrazolo[4,3-c]pyridin-1-yl}pyrrolidin-1-yl]prop-2-en-1-one]
C=CC(=O)N1CC[C@H](n2nc(C#Cc3cc4ncn(CC)c4cc3F)c3c(N)nccc32)C1 [Example 150, 1-[(3S)-3-{4-Amino-3-[2-(1-ethyl-6-fluoro-1,3-benzodiazol-5-yl)ethynyl]pyrazolo[4,3-c]pyridin-1-yl}pyrrolidin-1-yl]prop-2-en-1-one]
C=CC(=O)N1C[C@@H](n2nc(C#Cc3cc4ncn(C)c4cc3F)c3c(N)ncnc32)C[C@@H]1C [Example 151, 1-((2S,4S)-4-(4-amino-3-((1-methyl-6-fluoro-1H-benzo[d]imidazol-5-yl)ethynyl)-1H-pyrazolo[3,4-d]pyrimidin-1-yl)-2-methylpyrrolidin-1-yl)prop-2-en-1-one]
C=CC(=O)N1CC[C@H](n2nc(C#Cc3cc4ncn(CC)c4cc3F)c3c(N)ncnc32)C1 [Example 152, 1-[(3S)-3-{4-Amino-3-[2-(1-ethyl-6-fluoro-1,3-benzodiazol-5-yl)ethynyl]pyrazolo[3,4-d]pyrimidin-1-yl}pyrrolidin-1-yl]prop-2-en-1-one]
C=CC(=O)N1CC[C@H](n2nc(C#Cc3cc4ncn(CC)c4c(F)c3F)c3c(N)ncnc32)C1 [Example 153, 1-[(3S)-3-{4-Amino-3-[2-(1-ethyl-6,7-difluoro-1,3-benzodiazol-5-yl)ethynyl]pyrazolo[3,4-d]pyrimidin-1-yl}pyrrolidin-1-yl]prop-2-en-1-one]
C=CC(=O)N1CC[C@H](n2nc(C#Cc3cc4ncn(C)c4c(F)c3F)c3c(N)ncnc32)C1 [Example 154, 1-[(3S)-3-{4-Amino-3-[2-(6,7-difluoro-1-methyl-1,3-benzodiazol-5-yl)ethynyl]pyrazolo[3,4-d]pyrimidin-1-yl}pyrrolidin-1-yl]prop-2-en-1-one]
C=CC(=O)N1CC[C@H](n2nc(C#Cc3cc4ncn(CC)c4c(F)c3F)c3c(N)nccc32)C1 [Example 155, 1-[(3S)-3-{4-Amino-3-[2-(1-ethyl-6,7-difluoro-1,3-benzodiazol-5-yl)ethynyl]pyrazolo[4,3-c]pyridin-1-yl}pyrrolidin-1-yl]prop-2-en-1-one]
C=CC(=O)N1CC[C@H](n2nc(C#Cc3cc4ncn(C)c4c(F)c3F)c3c(N)nccc32)C1 [Example 156, 1-[(3S)-3-{4-Amino-3-[2-(6,7-difluoro-1-methyl-1,3-benzodiazol-5-yl)ethynyl]pyrazolo[4,3-c]pyridin-1-yl}pyrrolidin-1-yl]prop-2-en-1-one]
C=CC(=O)N1C[C@@H](n2nc(C#Cc3cc4ncn(CC)c4c(F)c3F)c3c(N)ncnc32)C[C@@H]1CC#N [Example 157, 2-[(2R,4S)-4-{4-Amino-3-[2-(1-ethyl-6,7-difluoro-1,3-benzodiazol-5-yl)ethynyl]pyrazolo[3,4-d]pyrimidin-1-yl}-1-(prop-2-enoyl)pyrrolidin-2-yl]acetonitrile]
C=CC(=O)N1C[C@@H](n2nc(C#Cc3cc4ncn(C)c4c(F)c3F)c3c(N)ncnc32)C[C@@H]1CC#N [Example 158, 2-[(2R,4S)-4-{4-Amino-3-[2-(6,7-difluoro-1-methyl-1,3-benzodiazol-5-yl)ethynyl]pyrazolo[3,4-d]pyrimidin-1-yl}-1-(prop-2-enoyl)pyrrolidin-2-yl]acetonitrile]
C=CC(=O)N1C[C@@H](n2nc(C#Cc3cc4ncn(C)c4c(F)c3F)c3c(N)nccc32)C[C@@H]1CC#N [Example 159, 2-((2R,4S)-1-Acryloyl-4-(4-amino-3-((6,7-difluoro-1-methyl-1H-benzo[d]imidazol-5-yl)ethynyl)-1H-pyrazolo[4,3-c]pyridin-1-yl)pyrrolidin-2-yl)acetonitrile]
C=CC(=O)N1C[C@@H](n2nc(C#Cc3cc4ncn(CC)c4c(F)c3F)c3c(N)nccc32)C[C@@H]1CC#N [Example 160, 2-[(2R,4S)-4-{4-Amino-3-[2-(1-ethyl-6,7-difluoro-1,3-benzodiazol-5-yl)ethynyl]pyrazolo[4,3-c]pyridin-1-yl}-1-(prop-2-enoyl)pyrrolidin-2-yl]acetonitrile]
C=CC(=O)N1C[C@@H](n2nc(C#Cc3cc4ncn(C)c4c(F)c3Cl)c3c(N)ncnc32)C[C@@H]1CC#N [Example 161, 2-[(2R,4S)-4-{4-Amino-3-[2-(6-chloro-7-fluoro-1-methyl-1,3-benzodiazol-5-yl)ethynyl]pyrazolo[3,4-d]pyrimidin-1-yl}-1-(prop-2-enoyl)pyrrolidin-2-yl]acetonitrile]
C=CC(=O)N1C[C@@H](n2nc(C#Cc3cc4ncn(CC)c4c(F)c3Cl)c3c(N)nccc32)C[C@@H]1CC#N [Example 162, 2-[(2R,4S)-4-{4-Amino-3-[2-(6-chloro-1-ethyl-7-fluoro-1,3-benzodiazol-5-yl)ethynyl]pyrazolo[4,3-c]pyridin-1-yl}-1-(prop-2-enoyl)pyrrolidin-2-yl]acetonitrile]
C=CC(=O)N1C[C@@H](n2nc(C#Cc3cc4ncn(CC)c4cc3F)c3c(N)ncnc32)C[C@@H]1C [Example 163, 1-((2S,4S)-4-(4-amino-3-((1-ethyl-6-fluoro-1H-benzo[d]imidazol-5-yl)ethynyl)-1H-pyrazolo[3,4-d]pyrimidin-1-yl)-2-methylpyrrolidin-1-yl)prop-2-en-1-one]
